In patent publication US8404708B2, “Dual NK1/NK3 receptor antagonists” (Hoffmann-La Roche Inc., priority 2004, dated 2013):
Where two headings read alike, the source gives them in different places.

How the values were obtained:
[1] = target: T1, Recombinant human NK3 (hNK3) receptor (Homo sapiens, UniProt P29371); test: NK3 receptor binding, [3H]SR142801 displacement, membrane preparations
T1 construct: expressed in transfected cells
T1 sequence (P29371 1-465): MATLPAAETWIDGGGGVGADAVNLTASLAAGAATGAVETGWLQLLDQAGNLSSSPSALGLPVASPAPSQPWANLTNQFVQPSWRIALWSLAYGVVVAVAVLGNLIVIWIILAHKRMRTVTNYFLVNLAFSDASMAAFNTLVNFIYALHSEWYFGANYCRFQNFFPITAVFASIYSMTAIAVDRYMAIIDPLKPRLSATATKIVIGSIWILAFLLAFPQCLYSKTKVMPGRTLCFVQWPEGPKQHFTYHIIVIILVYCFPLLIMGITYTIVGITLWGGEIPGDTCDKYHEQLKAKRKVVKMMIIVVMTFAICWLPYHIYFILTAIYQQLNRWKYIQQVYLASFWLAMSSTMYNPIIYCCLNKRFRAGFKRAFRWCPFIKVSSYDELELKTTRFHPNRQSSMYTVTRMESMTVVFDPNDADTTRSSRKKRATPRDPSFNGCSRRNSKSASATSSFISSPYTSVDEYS
Outline: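 hNK3 membranes (~2.5 μg/well) incubated 90 min at room temperature in 50 mM Tris-HCl pH 7.4 with 0.1% BSA, 4 mM MnCl2, 1 μM phosphoramidon. Nonspecific binding defined with 10 μM SB222200; bound [3H]SR142801 separated by filtration on PEI-soaked GF/C filters and counted by scintillation.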

human NK1 receptor = human NK1 receptor (Homo sapiens, UniProt P25103); test: NK1 receptor binding, [3H]substance P displacement, CHO cell membranes
Chain of human NK1 receptor (P25103 whole entry): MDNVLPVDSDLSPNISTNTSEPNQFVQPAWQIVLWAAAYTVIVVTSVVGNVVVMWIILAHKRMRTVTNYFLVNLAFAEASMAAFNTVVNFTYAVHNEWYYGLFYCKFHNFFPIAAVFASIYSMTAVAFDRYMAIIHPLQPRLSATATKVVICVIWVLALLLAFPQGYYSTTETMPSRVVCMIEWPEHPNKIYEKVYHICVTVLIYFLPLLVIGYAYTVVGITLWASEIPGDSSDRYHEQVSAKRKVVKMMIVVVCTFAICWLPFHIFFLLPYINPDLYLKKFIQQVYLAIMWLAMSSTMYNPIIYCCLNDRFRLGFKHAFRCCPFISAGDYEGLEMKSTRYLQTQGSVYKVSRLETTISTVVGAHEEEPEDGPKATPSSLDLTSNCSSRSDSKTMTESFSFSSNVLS

[2] = second value of the cell pKi NK1/NK3, hNK3 receptor, [3H]SR142801
[3] = first value of the cell pKi NK1/NK3, human NK1 receptor, [3H]substance P
[4] = second value of the cell NK1/NK3, read-out: pKi NK3 (converted)
[5] = first value of the cell NK1/NK3, read-out: pKi NK1 (converted)

| Structure (SMILES) | Ki [1, 2] [nM] | Ki (human NK1 receptor; [3]) [nM] | Ki [1, 4] [nM] | Ki (human NK1 receptor; [5]) [nM] |
| --- | --- | --- | --- | --- |
| COc1cc(Cl)cc(C(C)(C)C(=O)N(C)c2cnc(N3CCC[C@H]3CO)cc2-c2ccccc2C)c1 [Example 17, (S)-2-(3-Chloro-5-methoxy-phenyl)-N-[6-(2-hydroxymethyl-pyrrolidin-1-yl)-4-o-tolyl-pyridin-3-yl]-N-methyl-isobutyramide] | 3.16 | 3.89 | – | – |
| Cc1cc(F)ccc1-c1cc(N2CC(O)C2)ncc1N(C)C(=O)C(C)(C)c1cc(C(F)(F)F)cc(C(F)(F)F)c1 [Example 162, 2-(3,5-Bis-trifluoromethyl-phenyl)-N-[4-(4-fluoro-2-methyl-phenyl)-6-(3-hydroxy-azetidin-1-yl)-pyridin-3-yl]-N-methyl-isobutyramide] | 18.6 | 2.09 | – | – |
| Cc1cc(F)ccc1-c1cc(N2C[C@H](O)C[C@H]2CO)ncc1N(C)C(=O)C(C)(C)c1cc(Cl)cc(OC(F)F)c1 [Example 39, (2S,4R)-2-(3-Chloro-5-difluoromethoxy-phenyl)-N-[4-(4-fluoro-2-methyl-phenyl)-6-(4-hydroxy-2-hydroxymethyl-pyrrolidin-1-yl)-pyridin-3-yl]-N-methyl-isobutyramide] | 1.29 | 1.05 | – | – |
| Cc1ccncc1-c1cc(N(CCO)CCO)ncc1N(C)C(=O)C(C)(C)c1cc(C(F)(F)F)cc(C(F)(F)F)c1 [Example 293, N-{6′-[Bis-(2-hydroxy-ethyl)-amino]-4-methyl-[3,4′]bipyridinyl-3′-yl}-2-(3,5-bis-trifluoromethyl-phenyl)-N-methyl-isobutyramide] | – | – | 1.62 | 3.8 |
| Cc1cc(F)ccc1-c1cc(N2CC[C@H](O)[C@H]2CO)ncc1N(C)C(=O)C(C)(C)c1cc(C(F)(F)F)cc(C(F)(F)F)c1 [Example 155, (2R,3S)-2-(3,5-Bis-trifluoromethyl-phenyl)-N-[4-(4-fluoro-2-methyl-phenyl)-6-(3-hydroxy-2-hydroxymethyl-pyrrolidin-1-yl)-pyridin-3-yl]-N-methyl-isobutyramide] | 0.871 | 1.74 | – | – |
| Cc1noc(C)c1-c1cc(N2C[C@H](O)C[C@H]2CO)ncc1N(C)C(=O)C(C)(C)c1cc(C(F)(F)F)cc(C(F)(F)F)c1 [Example 230, (2S,4R)-2-(3,5-Bis-trifluoromethyl-phenyl)-N-[4-(3,5-dimethyl-isoxazol-4-yl)-6-(4-hydroxy-2-hydroxymethyl-pyrrolidin-1-yl)-pyridin-3-yl]-N-methyl-isobutyramide] | – | – | 2.69 | 0.741 |
| CC(=O)N(C)[C@H]1CCN(c2cc(-c3ccc(F)cc3C)c(N(C)C(=O)C(C)(C)c3cc(C(F)(F)F)cc(C(F)(F)F)c3)cn2)C1 [Example 107, (S)-N-[6-[3-(Acetyl-methyl-amino)-pyrrolidin-1-yl]-4-(4-fluoro-2-methyl-phenyl)-pyridin-3-yl]-2-(3,5-bis-trifluoromethyl-phenyl)-N-methyl-isobutyramide] | 11.7 | 2.34 | – | – |
| Cc1cc(F)ccc1-c1cc(N2CCC[C@H]2CO)ncc1N(C)C(=O)C(C)(C)c1cccc(C(F)(F)F)c1 [Example 26, (S)-N-[4-(4-Fluoro-2-methyl-phenyl)-6-(2-hydroxymethyl-pyrrolidin-1-yl)-pyridin-3-yl]-N-methyl-2-(3-trifluoromethyl-phenyl)-isobutyramide] | 5.75 | 3.02 | – | – |
| COc1cc(Cl)cc(C(C)(C)C(=O)N(C)c2cnc(N3CCC[C@H]3CO)cc2-c2ccccc2Cl)c1 [Example 7, (S)-2-(3-Chloro-5-methoxy-phenyl)-N-[4-(2-chloro-phenyl)-6-(2-hydroxymethyl-pyrrolidin-1-yl)-pyridin-3-yl]-N-methyl-isobutyramide] | 1.78 | 4.79 | – | – |
| Cc1ccccc1-c1cc(N2C[C@H](O)C[C@@H](O)C2)ncc1N(C)C(=O)C(C)(C)c1cc(C(F)(F)F)cc(C(F)(F)F)c1 [Example 179, (3R,5R)-2-(3,5-Bis-trifluoromethyl-phenyl)-N-(3,5-dihydroxy-4′-o-tolyl-3,4,5,6-tetrahydro-2H-[1,2′]bipyridinyl-5′-yl)-N-methyl-isobutyramide] | 4.07 | 1.51 | – | – |
| CN(C(=O)C(C)(C)c1cc(C(F)(F)F)cc(C(F)(F)F)c1)c1cnc(N2C[C@@H](O)C[C@H]2CO)cc1-c1ccc(Cl)c(Cl)c1 [Example 252, (2S,4S)-2-(3,5-Bis-trifluoromethyl-phenyl)-N-[4-(3,4-dichloro-phenyl)-6-(4-hydroxy-2-hydroxymethyl-pyrrolidin-1-yl)-pyridin-3-yl]-N-methyl-isobutyramide] | – | – | 6.17 | 1.66 |

Now from value to compound:

| Ki [1, 2] [nM] | Ki (human NK1 receptor; [3]) [nM] | Ki [1, 4] [nM] | Ki (human NK1 receptor; [5]) [nM] | Structure (SMILES) |
| --- | --- | --- | --- | --- |
| – | – | 7.08 | 1 | COc1ccccc1-c1cc(N2C[C@@H](O)C[C@H]2CO)ncc1N(C)C(=O)C(C)(C)c1cc(C(F)(F)F)cc(C(F)(F)F)c1 [Example 244, (2S,4S)-2-(3,5-Bis-trifluoromethyl-phenyl)-N-[6-(4-hydroxy-2-hydroxymethyl-pyrrolidin-1-yl)-4-(2-methoxy-phenyl)-pyridin-3-yl]-N-methyl-isobutyramide] |
| – | – | 14.1 | 2.45 | COc1ccc(-c2cc(N3C[C@H](O)C[C@H]3CO)ncc2N(C)C(=O)C(C)(C)c2cc(C(F)(F)F)cc(C(F)(F)F)c2)c(OC)n1 [Example 231, (2S,4R)-2-(3,5-Bis-trifluoromethyl-phenyl)-N-[6′-(4-hydroxy-2-hydroxymethyl-pyrrolidin-1-yl)-2,6-dimethoxy-[3,4′]bipyridinyl-3′-yl]-N-methyl-isobutyramide] |
| 4.07 | 2 | – | – | CN(C(=O)C(C)(C)c1cc(C(F)(F)F)cc(C(F)(F)F)c1)c1cnc(NCCO)cc1-c1ccc(Cl)cc1Cl [Example 70, 2-(3,5-Bis-trifluoromethyl-phenyl)-N-[4-(2,4-dichloro-phenyl)-6-(2-hydroxy-ethylamino)-pyridin-3-yl]-N-methyl-isobutyramide] |
| 9.55 | 1.58 | – | – | CN(C(=O)C(C)(C)c1cc(C(F)(F)F)cc(C(F)(F)F)c1)c1cnc(N(CCO)CCO)cc1-c1ccc(Cl)c(Cl)c1 [Example 87, N-[6-[Bis-(2-hydroxy-ethyl)-amino]-4-(3,4-dichloro-phenyl)-pyridin-3-yl]-2-(3,5-bis-trifluoromethyl-phenyl)-N-methyl-isobutyramide] |
| 3.55 | 1.55 | – | – | Cc1cc(F)ccc1-c1cc(N2C[C@H](O)C[C@H]2CO)ncc1N(C)C(=O)C(C)(C)c1cc(F)cc(F)c1 [Example 29, (2S,4R)-2-(3,5-Difluoro-phenyl)-N-[4-(4-fluoro-2-methyl-phenyl)-6-(4-hydroxy-2-hydroxymethyl-pyrrolidin-1-yl)-pyridin-3-yl]-N-methyl-isobutyramide] |
| 1.74 | 0.933 | – | – | Cc1cc(F)ccc1-c1cc(N2C[C@H](O)C[C@H]2CO)ncc1N(C)C(=O)C(C)(C)c1cc(F)cc(C(F)(F)F)c1 [Example 25, (2S,4R)-N-[4-(4-Fluoro-2-methyl-phenyl)-6-(4-hydroxy-2-hydroxymethyl-pyrrolidin-1-yl)-pyridin-3-yl]-2-(3-fluoro-5-trifluoromethyl-phenyl)-N-methyl-isobutyramide] |
| 1.17 | 1.82 | – | – | CC(=O)N1CCCN(c2cc(-c3ccccc3Cl)c(N(C)C(=O)C(C)(C)c3cc(C(F)(F)F)cc(C(F)(F)F)c3)cn2)CC1 [Example 63, N-[6-(4-Acetyl-[1,4]diazepan-1-yl)-4-(2-chloro-phenyl)-pyridin-3-yl]-2-(3,5-bis-trifluoromethyl-phenyl)-N-methyl-isobutyramide] |
| 1.58 | 0.891 | – | – | Cc1cc(F)ccc1-c1cc(N2C[C@H](O)C[C@H]2CO)ncc1N(C)C(=O)C(C)(C)c1cc(Cl)cc(Cl)c1 [Example 23, (2S,4R)-2-(3,5-Dichloro-phenyl)-N-[4-(4-fluoro-2-methyl-phenyl)-6-(4-hydroxy-2-hydroxymethyl-pyrrolidin-1-yl)-pyridin-3-yl]-N-methyl-isobutyramide] |
| 3.63 | 3.02 | – | – | Cc1ccccc1-c1cc(NC(CO)CO)ncc1N(C)C(=O)C(C)(C)c1cc(C(F)(F)F)cc(C(F)(F)F)c1 [Example 143, 2-(3,5-Bis-trifluoromethyl-phenyl)-N-[6-(2-hydroxy-1-hydroxymethyl-ethylamino)-4-o-tolyl-pyridin-3-yl]-N-methyl-isobutyramide] |
| 8.51 | 1.95 | – | – | CN(C(=O)C(C)(C)c1cc(C(F)(F)F)cc(C(F)(F)F)c1)c1cnc(N2C[C@H](O)C[C@H]2CO)cc1-c1cccc(Br)c1 [Example 205, (2S,4R)-2-(3,5-Bis-trifluoromethyl-phenyl)-N-[4-(3-bromo-phenyl)-6-(4-hydroxy-2-hydroxymethyl-pyrrolidin-1-yl)-pyridin-3-yl]-N-methyl-isobutyramide] |
| 5.13 | 2.95 | – | – | Cc1cc(C)cc(C(C)(C)C(=O)N(C)c2cnc(N3CCC[C@H]3CO)cc2-c2ccccc2C)c1 [Example 19, (S)-2-(3,5-Dimethyl-phenyl)-N-[6-(2-hydroxymethyl-pyrrolidin-1-yl)-4-o-tolyl-pyridin-3-yl]-N-methyl-isobutyramide] |
